Source: patent US10738024B2, “Compounds for treatment of angiogenesis-mediated diseases” (Indiana University Research and Technology Corporation, priority 2013, dated 2020)
Entries after “also recorded” stand apart in the source; their conditions may differ.

Assays:
HRECs [1] = test: Migration of HRECs; assay type: cell-based, human
p21, CDK1, IL-6 and IL-8 = test: Gene expression effects on p21, CDK1, IL-6 and IL-8 (data not shown); assay type: cell-based; conditions: compared with cremastranone
Akt = test: Phosphorylation of Akt in HRECs upon VEGF stimulation (immunoblot); assay type: cell-based, human; conditions: 100 ng/ml VEGF, 20 minutes
Description: (§1) HRECs were seeded at 10^5 cells/well in a 6-well plate and after 24 hours of incubation at 37° C., cells were serum starved in 0.1% serum-EBM-2 for 8 hours. Cells were then treated with the indicated concentrations of SH-11052 (2) for one hour before the addition of 100 ng/ml VEGF. After 20 minutes, cells were lysed in NP-40 Lysis buffer containing 25 mM HEPES pH 7.4, 1% NP-40, 150 mM NaCl, 10% glycerol, 1 mM sodium orthovanadate, 10 mM sodium fluoride, 1 mM sodium pyrophosphate, 1 mM PMSF, 2.5 mg/ml aprotinin, 1 mM pepstatin, and 1 mM leupeptin. Equal amounts of proteins (80 μg), as measured by a Bradford assay, were run on 10% SDS-PAGE, transferred to PVDF membrane, blocked with 5% BSA in TBS-0.05% Tween-20 and immunoblotted with the indicated primary antibodies (1:1000 in 1% BSA in TBS-0.05% Tween-20) overnight at 4° C. After three washes in TBS-0.05% Tween-20, HRP-conjugated secondary antibodies (1:5000 in 5% BSA in TBS-0.05% Tween-20) were applied for one hour at room temperature. After three washes, the protein bands were detected and densitized using ECL Prime western blot detection reagent (GE Life Sciences, Piscataway, N.J., USA) and an XRS gel documentation system running Quantity One software (Bio-Rad). Target protein band intensity was normalized to housekeeping gene α-tubulin. […]

IL8 = test: qRT-PCR of NF-κB target gene IL8 in TNF-α challenged cells; assay type: cell-based, human; conditions: 10 ng/ml TNF-α for 24 hours; listed as SH-11052 (2)
Description: Similarly, the mRNA expression of the pro-inflammatory molecules IL8, PTGS2 (COX2) and CCL2 (MCP-1), inducible by NF-κB, were analyzed in the presence of SH-11052 (2). Cells (10^5 per well) were seeded in a 6-well plate and incubated for 24 hours at 37° C. and 5% CO2. The cells were then starved in 0.1% serum-EBM-2 for 12 hours followed by incubation for an hour in the presence of different concentrations of SH-11052 (2). The cells were then challenged for 24 hours with 10 ng/ml TNF-α. Following incubation, cells were lysed and RNA was isolated using Trizol reagent (Life Technologies). cDNA was prepared from 80 ng total RNA using random primers and M-MuLV Reverse Transcriptase (New England Biolabs, Ipswich, Mass., USA). RT-PCR reactions were set up using the TaqMan Fast Gene Expression Assay Kit according to the manufacturer's instructions. FAM-labeled TaqMan probes for PTGS2 (Hs00153133_m1), CCL2 (Hs00234140_m1), IL8 (Hs00174103_m1), and control, TBP (Hs99999910_m1), genes were used to monitor the expression levels of these genes. The qRT-PCR plate was read in a ViiATM 7 qPCR system (Life Technologies) and the data were analyzed using the ΔΔCt method. The expression levels of genes were normalized to TBP gene expression and calibrated to the DMSO-treated, unstimulated sample.

IκB-α = test: TNF-α-mediated degradation of IκB-α in HRECs (immunoblot); assay type: cell-based, human; conditions: 20 ng/ml TNF-α, 20 minutes
Description: as §1, with “of 20” for “of 100”, “ng/ml of TNF-α.” for “ng/ml VEGF.”

HRECs [2] = test: EdU incorporation (DNA synthesis) in HRECs; assay type: cell-based, human; conditions: 24 hours treatment, 10 μM EdU pulse; listed as SH-11052 (2)
Description: In order to confirm the inhibition of cell proliferation, incorporation of 5-ethynyl-2′-deoxyuridine (EdU) into endothelial cells in the presence of SH-11052 (2) was further monitored. Particularly, cells (25,000 per coverslip) were seeded onto coverslips coated with Attachment Factor (Cell Systems, Kirkland, Wash., USA) placed in a 6-well plate and incubated with the indicated concentrations of SH-11052 (2) in EGM-2 for 24 hours at 37° C. and 5% CO2. The cells were then serum starved for 8 hours and the medium was replaced with EGM-2 containing 10 μM EdU. The plate was further incubated for another 8 hours before processing the cells for detection of labeled DNA (according to the manufacturer's instructions for the Click-iT EdU assay kit). Images were taken using an EVOS fluorescence microscope (AMG, Mill Creek, Wash., USA) and the number of DAPI stained and EdU stained cells were counted in six randomly chosen fields using ImageJ software.

| Compound | migration of HRECs (HRECs [1]) | gene expression effects on p21, CDK1, IL-6 and IL-8 (p21, CDK1, IL-6 and IL-8) | activation (phosphorylation) of Akt (Akt) | mRNA expression of IL8 (IL8) | TNF-α-mediated degradation of IκB-α (IκB-α) | DNA synthesis (EdU incorporation) in HRECs (HRECs [2]) |
| --- | --- | --- | --- | --- | --- | --- |
| COc1ccc(CC2COc3cc(OC)c(OC)c(OC)c3C2=O)cc1OC(=O)[C@H](Cc1ccccc1)NC(=O)OC(C)(C)C (stereo partly drawn) [Compound 6c, (2S)-2-methoxy-5-((5,6,7-trimethoxy-4-oxochroman-3-yl)methyl)phenyl 2-((tert-butoxycarbonyl)amino)-3-phenylpropanoate] | blocked migration | did not share cremastranone's gene expression effects |  |  |  |  |
| COc1ccc(CC2COc3cc(OC)c(O)c(O)c3C2=O)cc1O (single isomer, unassigned) [Compound 2] |  |  | inhibited activation | decreased the expression | significantly decreased in a dose dependent manner | blocked EdU incorporation; also recorded: significantly inhibited in a dose dependent manner |
